Measured values from patent publication US20230247997A1 (published 2023).

| SMILES | melting point |
| --- | --- |
| COc1nc(-c2ccccc2)nc(-c2ccccc2)n1 | 109 to 111 °C |
| COc1nc(-c2ccc(F)cc2)nc(-c2ccc(F)cc2)n1 | 173 to 174 °C |
| COc1nc(-c2ccc(Cl)cc2)nc(-c2ccc(Cl)cc2)n1 | 192 to 194 °C |
| COc1cccc(-c2nc(OC)nc(-c3cccc(OC)c3)n2)c1 | 126 to 128 °C |
| CCSc1nc(-c2ccncc2)ns1 | 49 to 50 °C |
| CCSc1nc(-c2cnccn2)ns1 | 60 to 62 °C |
| CCOC(=O)C=C1N=C(SCC)SN1 | 128 to 129 °C |
| CCSC1=NC(=CC(N)=O)NS1 | 140 to 142 °C |
| CCSc1nc(OC)ns1 | 35 to 37 °C |
| CCSc1nc(N(C)C)ns1 | 116 to 118 °C |

The remaining lines, values ahead:

| melting point | SMILES |
| --- | --- |
| 137 to 139 °C | COc1nc(-c2ccc(Cl)cc2)ns1 |
| 73 to 75 °C | COc1cccc(-c2nsc(OC)n2)c1 |
| 138 to 140 °C | COc1nc(-c2ccc([N+](=O)[O-])cc2)ns1 |
| 35 to 36 °C | CCSc1nc(-c2ccc(F)cc2)ns1 |
| 44 to 45 °C | CCSc1nc(-c2ccc(Cl)cc2)ns1 |
| 105 to 107 °C | CSc1nc(-c2ccc(Cl)cc2)ns1 |
| 36 to 37 °C | CCSc1nc(-c2ccc(Br)cc2)ns1 |
| 54 to 56 °C | CCSc1nc(-c2ccc(OC)cc2)ns1 |
| 103 to 104 °C | CCSc1nc(-c2ccc([N+](=O)[O-])cc2)ns1 |
